From US11524958B2, “Tricyclic compound as CRTH2 inhibitor” (CHIA TAI TIANQING PHARMACEUTICAL GROUP CO., LTD., priority 2016, dated 2022)

What follows are compounds tested against T1, CRTH2 receptor (Homo sapiens, UniProt Q9Y5Y4) (assay: PathHunter CHO-K1 CRTH2 β-arrestin assay (DiscoverX), antagonism of PGD2). Conditions: PathHunter CHO-K1 CRTH2 β-arrestin cells; compound 30 min, then EC80 agonist (PGD2) 90 min, 37° C.; chemiluminescent signal.
T1 construct: host or cells: CHO-K1 (PathHunter β-arrestin line)
T1 sequence (Q9Y5Y4 1-395): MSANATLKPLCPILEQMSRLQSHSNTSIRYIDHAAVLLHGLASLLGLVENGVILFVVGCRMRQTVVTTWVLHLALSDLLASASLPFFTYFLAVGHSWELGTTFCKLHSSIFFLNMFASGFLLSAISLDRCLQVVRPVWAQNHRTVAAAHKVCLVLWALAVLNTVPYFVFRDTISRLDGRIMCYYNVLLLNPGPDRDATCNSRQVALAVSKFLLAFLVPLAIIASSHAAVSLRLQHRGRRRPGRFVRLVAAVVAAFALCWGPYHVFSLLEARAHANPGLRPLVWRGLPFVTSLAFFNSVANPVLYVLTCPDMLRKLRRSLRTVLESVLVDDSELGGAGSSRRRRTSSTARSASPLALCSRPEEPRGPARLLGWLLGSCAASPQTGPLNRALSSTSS
Assay type: cell-based
Experimental: DiscoverX Corporation in the U.S was entrusted to complete this experiment by β-arrestin assay. The experimental method and results were listed below: PathHunter® CHO-K1 CRTH2 β-arrestin cells (DiscoverX, catalogue number 93-0291C2) grew under standard conditions, and were inoculated into a white-wall 384-well microplate at a density of 5,000 cells/well. 20 μL of Cell Plating Reagent 1 was used in each well. Before the test, the cells were incubated overnight at 37° C./5% CO2. A test compound was serially diluted in DMSO with a dilution factor of 3-fold to give 8 concentrations of the test compound. Shortly before the test, the serially diluted test compound was further diluted with the test buffer to 5 times of the test concentration. 5 μL of the further diluted test compound was added to the cells, and the cells were incubated for 30 min at 37° C. The concentration of the solvent was 1%. 5 μL of 6× EC80 agonist (PGD2) buffer was added to the cells, and the cells were incubated for 90 min at 37° C. Measured signals were generated by one-time addition of 15 μL (50% v/v) of PathHunter detection mixture reagent and subsequent one-hour incubation. The microplate was read through the chemiluminescent signals of PerkinElmer Envision™ reader. Biological activity of the test compound was analyzed by CBIS data analysis suite (ChemInnovation, CA), and was denoted as IC50 value.

| IC50 [µM] | SMILES |
| --- | --- |
| > 1 | CS(=O)(=O)c1ccc(Cc2c3n(c4ccccc24)CC(C(=O)O)CC3)c(C(F)(F)F)c1 (single isomer, unassigned) [Example 16 peak1] |
| < 0.1 | CS(=O)(=O)c1ccc(Cc2c3n(c4ccccc24)CC(C(=O)O)CC3)c(C(F)(F)F)c1 (single isomer, unassigned) [Example 16 peak2] |
| < 0.1 | CS(=O)(=O)c1ccc(Cc2c3n(c4ccc(Cl)cc24)CC(C(=O)O)CC3)c(C(F)(F)F)c1 (single isomer, unassigned) [Example 22 peak1] |
| > 1 | CS(=O)(=O)c1ccc(Cc2c3n(c4ccc(Cl)cc24)CC(C(=O)O)CC3)c(C(F)(F)F)c1 (single isomer, unassigned) [Example 22 peak2] |
| 0.1 to 1 | CS(=O)(=O)c1ccc(Cc2c3n(c4ccc(F)cc24)CC(C(=O)O)CC3)c(C(F)(F)F)c1 (single isomer, unassigned) [Example 25 peak1] |
| < 0.1 | CS(=O)(=O)c1ccc(Cc2c3n(c4ccc(F)cc24)CC(C(=O)O)CC3)c(C(F)(F)F)c1 (single isomer, unassigned) [Example 25 peak2] |
| > 1 | CS(=O)(=O)c1ccc(Cc2c3n(c4ccccc24)C(C(=O)O)CCC3)cc1 (stereo not shown) [Example 1] |
| 0.1 to 1 | O=C(O)C1CCCc2c(Cc3cccnc3S(=O)(=O)c3ccccc3)c3ccccc3n21 (stereo not shown) [Example 2] |
| 0.1 to 1 | CS(=O)(=O)c1ccc(Cc2c3n(c4ccccc24)C(C(=O)O)CCC3)c(C(F)(F)F)c1 (stereo not shown) [Example 6] |
| > 1 | CS(=O)(=O)c1ccc(Cc2c3n(c4ccccc24)C(CC(=O)O)CCC3)cc1 (stereo not shown) [Example 7] |
| > 1 | CS(=O)(=O)c1ccc(Cc2c3n(c4ccccc24)C(CC(=O)O)CCC3)c(C(F)(F)F)c1 (stereo not shown) [Example 8] |
| > 1 | CS(=O)(=O)c1ccc(Cc2c3n(c4ccccc24)CC(CC(=O)O)CC3)cc1 (stereo not shown) [Example 9] |
| > 1 | O=C(O)CC1CCc2c(Cc3ccc4ccccc4n3)c3ccccc3n2C1 (stereo not shown) [Example 10] |
| > 1 | O=C(O)CC1CCc2c(Cc3cccnc3S(=O)(=O)c3ccccc3)c3ccccc3n2C1 (stereo not shown) [Example 11] |
| > 1 | CS(=O)(=O)c1ccc(Cc2c3n(c4ccccc24)CC(CC(=O)O)CC3)c(C(F)(F)F)c1 (stereo not shown) [Example 15] |
| < 0.1 | CS(=O)(=O)c1ccc(Cc2c3n(c4ccccc24)CC(C(=O)O)CC3)c(C(F)(F)F)c1 (stereo not shown) [Example 16] |
| 0.1 to 1 | O=C(O)C1CCc2c(Cc3cccnc3S(=O)(=O)c3ccc(Cl)cc3)c3ccccc3n2C1 (stereo not shown) [Example 17] |
| > 1 | CC1(C(=O)O)CCc2c(Cc3ccc(S(C)(=O)=O)cc3C(F)(F)F)c3ccccc3n2C1 (stereo not shown) [Example 18] |
| > 1 | CC1(C(=O)O)CCc2c(Cc3ccc(C(F)(F)F)nc3)c3ccccc3n2C1 (stereo not shown) [Example 20] |
| > 1 | CC1(C(=O)O)CCc2c(Cc3ccc(S(C)(=O)=O)cc3F)c3ccccc3n2C1 (stereo not shown) [Example 21] |
| < 0.1 | CS(=O)(=O)c1ccc(Cc2c3n(c4ccc(Cl)cc24)CC(C(=O)O)CC3)c(C(F)(F)F)c1 (stereo not shown) [Example 22] |
| 0.1 to 1 | CS(=O)(=O)c1ccc(Cc2c3n(c4ccc(Cl)cc24)CC(C(=O)O)CC3)c(F)c1 (stereo not shown) [Example 23] |

| IC50 [µM] | SMILES |
| --- | --- |
| > 1 | O=C(O)C1CCc2c(Cc3ccc4c(c3)CCS4(=O)=O)c3cc(Cl)ccc3n2C1 (stereo not shown) [Example 24] |
| < 0.1 | CS(=O)(=O)c1ccc(Cc2c3n(c4ccc(F)cc24)CC(C(=O)O)CC3)c(C(F)(F)F)c1 (stereo not shown) [Example 25] |
| 0.1 to 1 | CS(=O)(=O)c1ccc(Cc2c3n(c4ccc(F)cc24)CC(C(=O)O)CC3)c(F)c1 (stereo not shown) [Example 26] |
| > 1 | O=C(O)C1CCc2c(Cc3ccc4ccccc4n3)c3cc(F)ccc3n2C1 (stereo not shown) [Example 27] |
| > 1 | O=C(O)C1CCc2c(Cc3ccc4c(c3)CCS4(=O)=O)c3cc(F)ccc3n2C1 (stereo not shown) [Example 28] |
| > 1 | CS(=O)(=O)c1ccc(Cc2c3ccccc3n3cc(C(=O)O)ncc23)cc1 [Example 29] |
| > 1 | CS(=O)(=O)c1ccc(Cc2c3ccccc3n3cc(C(=O)O)ncc23)cn1 [Example 30] |
| > 1 | CS(=O)(=O)c1ccc(Cc2c3ccccc3n3cc(C(=O)O)ncc23)c(C(F)(F)F)c1 [Example 31] |
| 0.1 to 1 | CS(=O)(=O)c1ccc(Cc2c3n(c4ccccc24)CC(C(=O)O)C3)c(C(F)(F)F)c1 (stereo not shown) [Example 32] |
| > 1 | O=C(O)C1CCc2c(Cc3ccc4c(c3)C(F)C(F)(F)S4(=O)=O)c3cc(F)ccc3n2C1 (stereo not shown) [Example 33] |
| < 0.1 | COc1ccc2c(c1)c(Cc1ccc(S(C)(=O)=O)cc1C(F)(F)F)c1n2CC(C(=O)O)CC1 (stereo not shown) [Example 34] |
| < 0.1 | CS(=O)(=O)c1ccc(Cc2c3n(c4ccc(OC(F)F)cc24)CC(C(=O)O)CC3)c(C(F)(F)F)c1 (stereo not shown) [Example 35] |
| > 1 | O=C(O)C1CCc2c(Cc3cc4c(cc3C(F)(F)F)S(=O)(=O)CC4)c3cc(F)ccc3n2C1 (stereo not shown) [Example 36] |
| > 1 | O=C(O)C1CCc2c(Cc3cc4c(cc3C(F)(F)F)S(=O)(=O)CC4)c3cc(Cl)ccc3n2C1 (stereo not shown) [Example 37] |
| > 1 | O=C(O)C1CCc2c(Cc3cccc4c3CCS4(=O)=O)c3cc(F)ccc3n2C1 (stereo not shown) [Example 38] |
| > 1 | CS(=O)(=O)c1ccc(Cc2c3n(c4ccccc24)CC(C(=O)O)CC3)nc1 (stereo not shown) [Example 39] |
| > 1 | COc1cc(C(F)(F)F)c(Cc2c3n(c4ccccc24)CC(C(=O)O)CC3)cn1 (stereo not shown) [Example 40] |
| > 1 | CS(=O)(=O)c1ccc(Cc2c3n(c4ccccc24)CC(C(=O)O)CC3)cn1 (stereo not shown) [Example 41] |
| > 1 | CS(=O)(=O)c1ccc(Cc2c3n(c4ncccc24)CC(C(=O)O)CC3)c(C(F)(F)F)c1 (stereo not shown) [Example 42] |
| > 1 | O=C(O)C1CCc2c(Cc3ccc4c(c3)C(F)(F)CCS4(=O)=O)c3cc(F)ccc3n2C1 (stereo not shown) [Example 43] |
| > 1 | O=C(O)C1CCc2c(Cc3ccc4c(c3)S(=O)(=O)CC4)c3cc(F)ccc3n2C1 (stereo not shown) [Example 44] |
